The text below walks through data of US4452813A, “Sulfonate derivatives, process for preparing same and antilipemic compositions containing the derivative” (Taiho Pharmaceutical Company Limited, priority 1981, dated 1984).

The subject of data set [1] is triglycerides content in the plasma. As to the kind of experiment: Antilipemic effect: inhibition of olive oil-induced hyperlipidemia, plasma triglycerides. It counts as in vivo, male Wister rats. The note with it: Rattus norvegicus, 100 mg compound in 5 ml olive oil, 5 ml/kg oral, 2 hours, read-out: Antilipemic effect IGI (%) (percent hyperlipidemia inhibition, triglycerides). On the procedure: Seven-week-old male Wister rats weighing 200 to 220 g are used, 5 rats in each group.
The compound of the invention (100 mg) is dissolved in 5 ml of olive oil. The olive oil containing the compound is orally given to the rat with a probe at a dose of 5 ml/kg. Two hours thereafter, 6 ml of whole blood is withdrawn from the descending aorta of the rat under ether anesthesia with a syringe containing heparin. The blood is centrifuged at 5° C. and 3000 r.p.m. to obtain the plasma. The plasma collected is used for determining the triglycerides content, using a triglycerides measuring kit (trade mark "Triglycerides-B Test Wako," product of Wako Junyaku Co., Ltd., Japan). Olive oil containing no compound is similarly given to a control group, while no treatment is conducted for a normal group. The triglycerides content in the plasma is also determined for these groups in the same manner as is the case with the test groups.
The percent hyperlipidemia inhibition achieved by the present compound is given by [formula] in which A is the triglycerides content of the control group, B is the triglycerides content of the normal group, and C is the triglycerides content of the group to which the present compound is given.

The nature of data set [2]: Acute toxicity, oral, one week. The note with it: rat, in vivo, 5% gum arabic suspension. The source says: Six-week-old male Wister rats weighing 180 to 200 g are used, 5 rats in each group. The present compound is suspended in a 5% aqueous solution of gum arabic, and the suspension is orally given to the rats. For one week after the start of the test, the rats are checked evey day for general toxicity symptoms, body weight and death to determine the LD50 value.

In another data set the target is Chymotripsin (Bos taurus, UniProt P00766). Nature of the data set: Chymotripsin inhibiting activity (hydrolysis of ATEE). It counts as biochemical. The note with it: 0.5 h; 1 × 10^-4 mol; 20 min preincubation, ATEE 30 min, 37° C., pH 8.0. On the procedure: 2. Chymotripsin Inhibiting Activity
Chymotripsin (0.1 unit) serving as an enzyme solution is added to a specified quantity of buffer solution (pH 8.0) containing 0.1 mole of trishydrochloric acid. To the mixture is further added a 50% ethanol solution of the compound of the invention. The mixture is reacted at 37° C. for 20 minutes.
On completion of the reaction, 10 micromoles of […] (ATEE) serving as a substrate is added to the mixture, and the resulting mixture is reacted at 37° C. for 30 minutes.
After the completion of the reaction, the amount of remaining ATEE is determined by the same hydroxamic acid method as above. The percent chymotripsin inhibition is given by [formula] wherein A is the amount of hydrolzed esters in the reaction system not containing the compound of the invention, and B is the amount of hydrolyzed esters in the reaction system containing the present compound.

The target in data set [3] is esterase (purified microsome fraction of the liver of a rat). Nature of the data set: Esterase inhibiting activity (hydrolysis of methyl butyrate). It counts as biochemical. The note with it: methyl butyrate substrate, pH 8.0, 37° C., 60 minutes. The protocol:
1. Esterase Inhibiting Activity
A 10 micromole quantity of methyl butyrate in a 50% ethanol solution is added as a substrate to a specified amount of buffer solution (pH 8.0) containing 0.1 mole of trishydrochloric acid. To the mixture is further added a 50% ethanol solution of the compound of the invention, immediately followed by addition of an esterase solution prepared from a purified microsome fraction of the liver of a rat (adjusted to hydrolyze 9 micromoles of methyl butyrate at 37° C. in one hour). The mixture is reacted at 37° C. for 60 minutes.
After the reaction, alkaline hydroxylamine is added to the mixture to form a hydroxamic acid derivative of methyl butyrate, and a ferric salt is added to the derivative. The resulting red color is colorimetrically determined (at a wavelength of 540 nm) to determine the amount of remaining methyl butyrate. The esterase inhibiting ratios of the present compound at least at three concentrations are plotted as ordinate, and the logarithms of the concentrations as abscissa to obtain a line, which gives the 50% inhibition concentration (IC50).

For data set [4] the following is noted: background literature, cited from earlier work.

Like-named read-outs stand apart in the source and are kept apart here.

Consider `Cc1ccc(S(=O)(=O)OCC(=O)[C@H]2CC[C@H](C(C)(C)C)CC2)cc1` [Compound 37], for which, in data set [1], the inhibition in vivo at 100 mg/kg was 66%. Also, in data set [2], the LD50 at 168 h is over 3000 mg/kg. The same molecule showed an inhibition at 100 µM against Chymotripsin of 22%. In data set [3], this molecule came in with an IC50 of 5.4 µM.
In the same order, the values of `CC(C)C1CCC(CC(=O)COS(=O)(=O)c2ccccc2)CC1` (stereo not shown) [Compound 21] are 70%, over 3000 mg/kg, 94% and 6 µM.
In the same order, the values of `CCC1CCC(C(=O)COS(=O)(=O)c2ccccc2)CC1` (stereo not shown) [Compound 22] are 59%, over 2000 mg/kg, 58% and 0.2 µM.
In the same order, the values of `CCC(C)[C@H]1CC[C@@H](C(=O)COS(=O)(=O)c2ccccc2)CC1` (stereo partly shown) [Compound 32] are 61%, over 3000 mg/kg, 13% and 0.56 µM.
For the molecule `CCOC(=O)C(C)(C)Oc1ccc(Cl)cc1` [Clofibrate], the figures for the “reported side effects (in words)” value in data set [4] and in data set [4] (listed as clofibrate) were “carcinogenic activity” and “increased sterol discharge”, respectively.
As for `CCOc1ccc(S(=O)(=O)OCC(=O)[C@H]2CC[C@@H](C(C)C)CC2)cc1` [Compound 26], the inhibition in vivo at 100 mg/kg in data set [1] is 50%. For the same molecule, the LD50 at 168 h in data set [2] is over 3000 mg/kg. The molecule further registered an inhibition at 100 µM on Chymotripsin of 14%. In data set [3], this molecule had an IC50 of 11 µM.
In the same order, the values of `Cc1ccc(S(=O)(=O)OCC(=O)CC(C)C2CCCCC2)cc1` (stereo not shown) [Compound 9] are 70%, over 2000 mg/kg, 31% and 4.2 µM.
Take `Cc1ccc(S(=O)(=O)OCC(=O)[C@H]2CC[C@@H](C(C)(C)C)CC2)cc1` [Compound 36]: the inhibition in vivo at 100 mg/kg in data set [1] stood at 52%. For the same molecule, the 50% lethal dose (LD50) at 168 h in data set [2] is over 3000 mg/kg. This molecule also came in with an inhibition at 100 µM at Chymotripsin of 44%. In addition, half-maximal inhibition in data set [3] (IC50) required 86 µM.
For `O=C(O)c1cccnc1` [Nicotinic acid], the “reported side effects (in words)” value in data set [4] was “pruritus and cutaneous flushing due to vasodilatation, gastrointestinal disorders, abnormalities in liver function and glucose intolerance”.
